From patent publication US20080161344A1, “Melanin Concentrating Hormone Receptor Ligands: Substituted Tetrahydroisoquinoline Analogues” (priority 2004, published 2008)

biological target: MCH receptor (MCH1) (Macaca fascicularis, UniProt A0A2K5VT41); assay: Melanin concentrating hormone receptor binding assay (125I-Tyr MCH competition, membranes of transfected HEK293 cells); design: species or system Cynomolgus macaque; conditions: not given
Procedure: This Example illustrates a standard assay of melanin concentrating hormone receptor binding that may be used to determine the binding affinity of compounds for the MCH receptor.
Cynomolgus macaque hypothalamus MCH1 cDNA is prepared and cloned into PCDNA3.1 (INVITROGEN Corp., Carlsbad, Calif.), and HEK293 cells (American Type Culture Collection, Manassas, Va.) are stably transfected with the MCH1 expression vector as described in PCT International Application publication number WO/03/059289, which published on Jul. 24, 2003. The disclosure of WO 03/059289 at page 52 directed to the preparation and storage of the transfected HEK293 cells is hereby incorporated by reference.
At the time of assay, pellets are thawed by addition of wash buffer (25 mM Hepes with 1.0 mM CaCl2, 5.0 mM MgCl2, 120 mM NaCl, pH 7.4) and homogenized for 30 seconds using a BRINKMAN POLYTRON, setting 5. Cells are centrifuged for 10 minutes at 48,000×g. The supernatant is discarded and the pellet is resuspended in fresh wash buffer, and homogenized again. An aliquot of this membrane homogenate is used to determine protein concentration via the Bradford method (BIO-RAD Protein Assay Kit, #500-0001, BIO-RAD, Hercules, Calif.). By this measure, a 1-liter culture of cells typically yields 50-75 mg of total membrane protein. The homogenate is centrifuged as before and resuspended to a protein concentration of 333 μg/mL in binding buffer (Wash buffer+0.1% BSA and 1.0 μM final phosphoramidon) for an assay volume of 50 μg membrane protein/150 μl binding buffer. Phosphoramidon was from SIGMA BIOCHEMICALS, St. Louis, Mo. (cat# R-7385).
Competition binding assays are performed at room temperature in Falcon 96 well round bottom polypropylene plates. Each assay well contains 150 μL of MCH receptor-containing membranes described above, 50 μL ^125I-Tyr MCH, 50 μL binding buffer, and 2 μL test compound in DMSO. ^125I-Tyr MCH (specific activity=2200 Ci/mmol) is purchased from NEN (Boston, Mass.) and is diluted in binding buffer to provide a final assay concentration of 30 pM.
Non-specific binding is defined as the binding measured in the presence of 1 μM unlabeled MCH. MCH is purchased from BACHEM U.S.A., King of Prussia, Pa. (cat #H-1482). Assay wells used to determine MCH binding contain 150 μL of MCH receptor containing membranes, 50 μL ^125I-Tyr MCH, 25 μL binding buffer and 25 μL binding buffer.
Assay plates are incubated for 1 hour at room temperature. Membranes are harvested onto WALLAC™ glass fiber filters (PERKIN-ELMER, Gaithersburg, Md.) which were pre-soaked with 1.0% PEI (polyethyleneimine) for 2 hours prior to use. Filters are allowed to dry overnight, and then counted in a WALLAC 1205 BETA PLATE counter after addition of WALLAC BETA SCINT™ scintillation fluid.
For saturation binding, the concentration of ^125I-Tyr MCH is varied from 7 to 1,000 pM. Typically, 11 concentration points are collected per saturation binding curve. Equilibrium binding parameters are determined by fitting the allosteric Hill equation to the measured values with the aid of the computer program FitP™ (BIOSOFT, Ferguson, Mo.).

Sequence of MCH receptor (MCH1) (A0A2K5VT41 entry or part of it): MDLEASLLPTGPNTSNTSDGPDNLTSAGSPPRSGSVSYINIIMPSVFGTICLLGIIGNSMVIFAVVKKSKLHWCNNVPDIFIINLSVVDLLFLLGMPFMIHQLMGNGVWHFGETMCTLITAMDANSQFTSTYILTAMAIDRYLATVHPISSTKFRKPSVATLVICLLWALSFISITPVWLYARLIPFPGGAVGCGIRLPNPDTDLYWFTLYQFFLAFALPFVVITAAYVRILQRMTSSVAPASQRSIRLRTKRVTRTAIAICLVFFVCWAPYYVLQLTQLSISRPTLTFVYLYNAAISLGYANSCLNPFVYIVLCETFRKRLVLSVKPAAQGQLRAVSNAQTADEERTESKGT

SMILES | Ki
COc1cc2c(cc1OC)CN(Cc1cccc(Oc3ccc(C(C)(C)C)cc3)c1)CC2 [Compound 1, 2-[3-(4-tert-Butyl-phenoxy)-benzyl]-6,7-dimethoxy-1,2,3,4-tetrahydroisoquinoline] | < 1 µM
COc1cc2c(cc1OC)CN(Cc1cccc(Oc3ccc(C)cc3)c1)CC2 [Compound 3, 6,7-dimethoxy-2-(3-p-tolyloxy-benzyl)-1,2,3,4-tetrahydroisoquinoline] | < 1 µM
COc1cc2c(cc1OC)CN(Cc1ccnc(Oc3ccc(C(C)(C)C)cc3)c1)CC2 [Compound 5, 2-[2-(4-tert-Butyl-phenoxy)-pyridin-4-ylmethyl]-6,7-dimethoxy-1,2,3,4-tetrahydroisoquinoline] | < 1 µM

same assay, conditions: MCH receptor binding assay of Example 2; class symbol; read-out: Ki

SMILES | Ki
COc1cc2c(cc1OC)CN(Cc1ccnc(Oc3ccc(C(C)C)cc3)c1)CC2 [Compound 19, 2-[2-(4-Isopropyl-phenoxy)-pyridin-4-ylmethyl]-6,7-dimethoxy-1,2,3,4-tetrahydroisoquinoline] | < 1 µM
COc1cc2c(cc1OC)CN(Cc1cccc(Cc3ccccc3)c1)CC2 [Compound 10, 2-(3-Benzyl-benzyl)-6,7-dimethoxy-1,2,3,4-tetrahydroisoquinoline] | < 1 µM
COc1cc2c(cc1OC)CN(Cc1cccc(Oc3ccc(C(C)C)cc3)c1)CC2 [Compound 23, 2-[3-(4-Isopropyl-phenoxy)-benzyl]-6,7-dimethoxy-1,2,3,4-tetrahydroisoquinoline] | < 1 µM
COc1cc2c(cc1OC)CN(Cc1cccc(Oc3ccccc3)c1)CC2 [Compound 43, 6,7-Dimethoxy-2-(3-phenoxy-benzyl)-1,2,3,4-tetrahydroisoquinoline] | < 1 µM
COc1cc2c(cc1OC)CN(Cc1cccc(Oc3ccc(Cl)cc3)c1)CC2 [Compound 21, 2-[3-(4-Chloro-phenoxy)-benzyl]-6,7-dimethoxy-1,2,3,4-tetrahydroisoquinoline] | < 1 µM
CCOc1cc2c(cc1OC)CCN(Cc1ccnc(Oc3ccc(C(C)C)cc3)c1)C2 [Compound 53, 7-Ethoxy-2-[2-(4-isopropyl-phenoxy)-pyridin-4-ylmethyl]-6-methoxy-1,2,3,4-tetrahydroisoquinoline] | < 1 µM
COc1cc2c(cc1OC)CN(Cc1cccc(Oc3ccc(OC(F)(F)F)cc3)c1)CC2 [Compound 49, 6,7-Dimethoxy-2-[3-(4-trifluoromethoxy-phenoxy)-benzyl]-1,2,3,4-tetrahydroisoquinoline] | < 1 µM
COc1cc2c(cc1OC)CN(Cc1cccc(Oc3ccc(C(C)(C)C)cc3)n1)CC2 [Compound 34, 2-[6-(4-tert-Butyl-phenoxy)-pyridin-2-ylmethyl]-6,7-dimethoxy-1,2,3,4-tetrahydroisoquinoline] | < 1 µM
COc1cc2c(cc1OC)CN(Cc1cccc(Oc3ccc(C#N)cc3)c1)CC2 [Compound 42, 4-[3-(6,7-Dimethoxy-3,4-dihydro-1H-isoquinolin-2-ylmethyl)-phenoxy]-benzonitrile] | < 1 µM
COc1ccc(Oc2cccc(CN3CCc4cc(OC)c(OC)cc4C3)c2)cc1 [Compound 47, 6,7-Dimethoxy-2-[3-(4-methoxy-phenoxy)-benzyl]-1,2,3,4-tetrahydroisoquinoline] | < 1 µM

The remaining lines, values ahead:

Ki | SMILES
< 1 µM | CC(C)(C)c1ccc(Oc2cccc(CN3CCc4cc5c(cc4C3)OCO5)c2)cc1 [Compound 52, 6-[3-(4-tert-Butyl-phenoxy)-benzyl]-5,6,7,8-tetrahydro-[1,3]dioxolo[4,5-g]isoquinoline]
< 1 µM | CCOc1cc2c(cc1OCC)CN(Cc1cccc(Oc3ccc(C(C)(C)C)cc3)c1)CC2 [Compound 26, 2-[3-(4-tert-Butyl-phenoxy)-benzyl]-6,7-diethoxy-1,2,3,4-tetrahydroisoquinoline]
< 1 µM | CCOc1cc2c(cc1OC)CN(Cc1cccc(Oc3ccc(C(C)(C)C)cc3)c1)CC2 [Compound 29, 2-[3-(4-tert-Butyl-phenoxy)-benzyl]-6-ethoxy-7-methoxy-1,2,3,4-tetrahydroisoquinoline]
< 1 µM | COc1cc2c(cc1OC)CN(Cc1cccc(Oc3ccc(C(F)(F)F)cc3)c1)CC2 [Compound 50, 6,7-Dimethoxy-2-[3-(4-trifluoromethyl-phenoxy)-benzyl]-1,2,3,4-tetrahydroisoquinoline]
< 1 µM | CCOc1ccc(Oc2cccc(CN3CCc4cc(OC)c(OC)cc4C3)c2)cc1 [Compound 22, 2-[3-(4-Ethoxy-phenoxy)-benzyl]-6,7-dimethoxy-1,2,3,4-tetrahydroisoquinoline]
< 1 µM | CCOc1cc2c(cc1OC)CCN(Cc1cccc(Oc3ccc(C(C)(C)C)cc3)c1)C2 [Compound 31, 2-[3-(4-tert-Butyl-phenoxy)-benzyl]-7-ethoxy-6-methoxy-1,2,3,4-tetrahydroisoquinoline]
